These results are taken from patent US6936585B2, “Corticotropin releasing factor 2 receptor agonists” (priority 2002, dated 2005).

Peptide text beside a SMILES is read from it.

The target in one experiment is T1, CRF1R (Homo sapiens, UniProt P34998).
T1 sequence (P34998 24-415): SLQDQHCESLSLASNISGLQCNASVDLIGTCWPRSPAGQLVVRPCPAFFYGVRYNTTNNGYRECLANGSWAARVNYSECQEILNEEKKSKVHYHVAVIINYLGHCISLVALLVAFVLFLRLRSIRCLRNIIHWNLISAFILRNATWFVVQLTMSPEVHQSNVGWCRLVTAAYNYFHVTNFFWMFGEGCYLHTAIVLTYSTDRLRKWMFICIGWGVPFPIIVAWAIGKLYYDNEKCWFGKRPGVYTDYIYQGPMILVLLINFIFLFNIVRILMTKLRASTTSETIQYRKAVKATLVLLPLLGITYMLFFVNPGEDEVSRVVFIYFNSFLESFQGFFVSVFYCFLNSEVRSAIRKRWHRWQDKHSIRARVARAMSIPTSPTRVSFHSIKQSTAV
Kind of experiment: CRF1R agonist activation (EC50 / Emax), called comparative CRF binding. It is filed as cell-based. To be noted: for Emax: read-out: CRF1R Emax. A digest of the protocol:
(§1)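 Cells expressing full-length human CRF1R or CRF2R were exposed to peptide or vehicle control, and receptor activation was gauged as cAMP induction. cAMP was measured in cell lysates or via a cAMP-responsive element driving a reporter gene such as luciferase, CAT, GFP or alkaline phosphatase.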

The next experiment concerns the target T2, CRF2R (Homo sapiens, UniProt Q13324).
T2 sequence (Q13324 1-411): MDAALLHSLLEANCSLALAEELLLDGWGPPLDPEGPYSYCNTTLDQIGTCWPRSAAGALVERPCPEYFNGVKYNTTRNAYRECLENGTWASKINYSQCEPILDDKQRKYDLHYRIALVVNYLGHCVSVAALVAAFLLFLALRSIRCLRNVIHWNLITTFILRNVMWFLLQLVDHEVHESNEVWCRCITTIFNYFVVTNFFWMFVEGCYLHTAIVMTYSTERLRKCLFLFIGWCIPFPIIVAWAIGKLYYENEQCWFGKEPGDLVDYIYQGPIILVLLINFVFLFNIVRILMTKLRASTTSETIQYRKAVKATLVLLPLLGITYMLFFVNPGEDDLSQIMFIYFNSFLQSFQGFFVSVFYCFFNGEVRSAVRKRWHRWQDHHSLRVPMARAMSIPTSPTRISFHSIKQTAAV
The experiment in a line: CRF2R agonist activation (EC50 / Emax), called comparative CRF binding. The format is cell-based. To be noted: for Emax: read-out: CRF2R Emax. A digest of the protocol:
as §1

What is called EC50 is the concentration needed to bring the measured effect to its halfway point. The Emax is the size of the effect at its maximum, as opposed to the concentration needed. Regarding `CC[C@H](C)[C@H](N)C(=O)N[C@H](C(=O)N[C@@H](CC(C)C)C(=O)N[C@@H](CO)C(=O)N[C@@H](CC(C)C)C(=O)N[C@@H](CC(=O)O)C(=O)N[C@H](C(=O)N1CCC[C@H]1C(=O)N[C@H](C(=O)NCC(=O)N[C@@H](CC(C)C)C(=O)N[C@@H](CC(C)C)C(=O)N[C@@H](CCC(N)=O)C(=O)N[C@H](C(=O)N[C@@H](CC(C)C)C(=O)N[C@@H](CC(C)C)C(=O)N[C@@H](CCC(=O)O)C(=O)N[C@@H](CCC(N)=O)C(=O)N[C@@H](CCC(=O)O)C(=O)N[C@@H](CCCNC(=N)N)C(=O)N[C@@H](C)C(=O)N[C@@H](CCC(=O)O)C(=O)N[C@@H](C)C(=O)N[C@@H](C)C(=O)N[C@@H](CCCNC(=N)N)C(=O)N[C@@H](CCC(=O)O)C(=O)N[C@@H](CCC(N)=O)C(=O)N[C@@H](C)C(=O)N[C@H](C(=O)N[C@H](C(=O)N[C@@H](CC(N)=O)C(=O)N[C@@H](C)C(=O)N[C@@H](CCCNC(=N)N)C(=O)N[C@H](C(=O)N[C@@H](CC(C)C)C(=O)N[C@@H](C)C(=O)N[C@@H](CCCNC(=N)N)C(=O)N[C@H](C(N)=O)C(C)C)[C@@H](C)CC)[C@@H](C)O)[C@@H](C)O)[C@@H](C)CC)[C@@H](C)CC)C(C)C)C(C)C` [compound 113] (H-IVLSLDVPIGLLQILLEQERAEAAREQATTNARILARV-NH2; N-terminus assumed), the figures for the EC50 on CRF1R (read-out: CRF1R EC50) and at CRF2R (read-out: CRF2R EC50) were above 100 nM and 11.3 nM, respectively. Moreover, the Emax at CRF1R was 4%; on CRF2R, 98%.
Consider `CC[C@H](C)[C@H](N)C(=O)N[C@H](C(=O)N[C@@H](CC(C)C)C(=O)N[C@@H](CO)C(=O)N[C@@H](CC(C)C)C(=O)N[C@@H](CC(=O)O)C(=O)N[C@H](C(=O)N1CCC[C@H]1C(=O)N[C@H](C(=O)NCC(=O)N[C@@H](CC(C)C)C(=O)N[C@@H](CC(C)C)C(=O)N[C@@H](CCC(N)=O)C(=O)N[C@H](C(=O)N[C@@H](CC(C)C)C(=O)N[C@@H](CC(C)C)C(=O)N[C@@H](CCC(=O)O)C(=O)N[C@@H](CCC(N)=O)C(=O)N[C@@H](C)C(=O)N[C@@H](CCCNC(=N)N)C(=O)N[C@@H](CCC(N)=O)C(=O)N[C@@H](CCCNC(=N)N)C(=O)N[C@@H](C)C(=O)N[C@@H](C)C(=O)N[C@@H](CCCNC(=N)N)C(=O)N[C@@H](CCC(=O)O)C(=O)N[C@@H](CCC(N)=O)C(=O)N[C@@H](C)C(=O)N[C@H](C(=O)N[C@H](C(=O)N[C@@H](CC(N)=O)C(=O)N[C@@H](C)C(=O)N[C@@H](CCCNC(=N)N)C(=O)N[C@H](C(=O)N[C@@H](CC(C)C)C(=O)N[C@@H](C)C(=O)N[C@@H](CCCNC(=N)N)C(=O)N[C@H](C(N)=O)C(C)C)[C@@H](C)CC)[C@@H](C)O)[C@@H](C)O)[C@@H](C)CC)[C@@H](C)CC)C(C)C)C(C)C` [compound 114] (H-IVLSLDVPIGLLQILLEQARQRAAREQATTNARILARV-NH2; N-terminus assumed), for which the figures for the Emax at CRF1R and on CRF2R were 6% and 100%, respectively.
With `CC[C@H](C)[C@H](N)C(=O)N[C@H](C(=O)N[C@@H](CC(C)C)C(=O)N[C@@H](CO)C(=O)N[C@@H](CC(C)C)C(=O)N[C@@H](CC(=O)O)C(=O)N[C@H](C(=O)N1CCC[C@H]1C(=O)N[C@H](C(=O)NCC(=O)N[C@@H](CC(C)C)C(=O)N[C@@H](CC(C)C)C(=O)N[C@@H](CCC(N)=O)C(=O)N[C@H](C(=O)N[C@@H](CC(C)C)C(=O)N[C@@H](CC(C)C)C(=O)N[C@@H](CCC(=O)O)C(=O)N[C@@H](CCC(N)=O)C(=O)N[C@@H](CCC(=O)O)C(=O)N[C@@H](CCCCN)C(=O)N[C@@H](CCC(N)=O)C(=O)N[C@@H](CCCNC(=N)N)C(=O)N[C@@H](C)C(=O)N[C@@H](C)C(=O)N[C@@H](CCCNC(=N)N)C(=O)N[C@@H](CCC(=O)O)C(=O)N[C@@H](CCC(N)=O)C(=O)N[C@@H](C)C(=O)N[C@H](C(=O)N[C@H](C(=O)N[C@@H](CC(N)=O)C(=O)N[C@@H](C)C(=O)N[C@@H](CCCNC(=N)N)C(=O)N[C@H](C(=O)N[C@@H](CC(C)C)C(=O)N[C@@H](C)C(=O)N[C@@H](CCCNC(=N)N)C(=O)N[C@H](C(N)=O)C(C)C)[C@@H](C)CC)[C@@H](C)O)[C@@H](C)O)[C@@H](C)CC)[C@@H](C)CC)C(C)C)C(C)C` [compound 115] (H-IVLSLDVPIGLLQILLEQEKQRAAREQATTNARILARV-NH2; N-terminus assumed), the Emax at CRF1R was 7%; on CRF2R it was 98%.
The matching figures for `CC[C@H](C)[C@H](N)C(=O)N[C@H](C(=O)N[C@@H](CC(C)C)C(=O)N[C@@H](CO)C(=O)N[C@@H](CC(C)C)C(=O)N[C@@H](CC(=O)O)C(=O)N[C@H](C(=O)N1CCC[C@H]1C(=O)N[C@H](C(=O)NCC(=O)N[C@@H](CC(C)C)C(=O)N[C@@H](CC(C)C)C(=O)N[C@@H](CCC(N)=O)C(=O)N[C@H](C(=O)N[C@@H](CC(C)C)C(=O)N[C@@H](CC(C)C)C(=O)N[C@@H](CCC(=O)O)C(=O)N[C@@H](CCC(N)=O)C(=O)N[C@H](C(=O)N[C@@H](CCCCN)C(=O)N[C@@H](C)C(=O)N[C@@H](CC(N)=O)C(=O)N[C@@H](C)C(=O)N[C@@H](C)C(=O)N[C@@H](CCCNC(=N)N)C(=O)N[C@@H](CCC(=O)O)C(=O)N[C@@H](CCC(N)=O)C(=O)N[C@@H](C)C(=O)N[C@H](C(=O)N[C@H](C(=O)N[C@H](C(=O)N[C@@H](C)C(=O)N[C@@H](CCCNC(=N)N)C(=O)N[C@H](C(=O)N[C@@H](CC(C)C)C(=O)N[C@@H](C)C(=O)N[C@@H](CCCNC(=N)N)C(=O)N[C@H](C(N)=O)C(C)C)[C@@H](C)CC)C(C)C)[C@@H](C)O)[C@@H](C)O)[C@@H](C)O)[C@@H](C)CC)[C@@H](C)CC)C(C)C)C(C)C` [compound 116] (H-IVLSLDVPIGLLQILLEQTKANAAREQATTVARILARV-NH2): 4.8% and 26.4%.
Regarding `CC[C@H](C)[C@H](N)C(=O)N[C@H](C(=O)N[C@@H](CC(C)C)C(=O)N[C@@H](CO)C(=O)N[C@@H](CC(C)C)C(=O)N[C@@H](CC(=O)O)C(=O)N[C@H](C(=O)N1CCC[C@H]1C(=O)N[C@H](C(=O)NCC(=O)N[C@@H](CC(C)C)C(=O)N[C@@H](CC(C)C)C(=O)N[C@@H](CCC(N)=O)C(=O)N[C@H](C(=O)N[C@@H](CC(C)C)C(=O)N[C@@H](CC(C)C)C(=O)N[C@@H](CCC(=O)O)C(=O)N[C@@H](CCC(N)=O)C(=O)N[C@H](C(=O)N[C@@H](CCCCN)C(=O)N[C@@H](C)C(=O)N[C@@H](CCCNC(=N)N)C(=O)N[C@@H](C)C(=O)N[C@@H](C)C(=O)N[C@@H](CCCNC(=N)N)C(=O)N[C@@H](CCC(=O)O)C(=O)N[C@@H](CCC(N)=O)C(=O)N[C@@H](C)C(=O)N[C@H](C(=O)N[C@H](C(=O)N[C@@H](CC(N)=O)C(=O)N[C@@H](C)C(=O)N[C@@H](CCCNC(=N)N)C(=O)N[C@H](C(=O)N[C@@H](CC(C)C)C(=O)N[C@@H](C)C(=O)N[C@@H](CCCNC(=N)N)C(=O)N[C@H](C(N)=O)C(C)C)[C@@H](C)CC)[C@@H](C)O)[C@@H](C)O)[C@@H](C)O)[C@@H](C)CC)[C@@H](C)CC)C(C)C)C(C)C` [compound 117] (H-IVLSLDVPIGLLQILLEQTKARAAREQATTNARILARV-NH2), the figures for the Emax on CRF1R and on CRF2R were 7.8% and 98.8%, respectively.
